For assay [1], the target named is T1, 5-HT2A (Homo sapiens (Human), UniProt P28223). Briefly: Radioligand binding assay, [^3H]5-HT competition, 5-HT2A. Conditions: [^3H]5-HT radioligand, membranes of HEK293 cells expressing recombinant 5-HT2A; Ki from IC50 by Cheng-Prusoff; read-out: 5-HT2A serotonin binding Ki value.
The target of assay [2] is T1, 5-HT2A. Briefly: HTRF IP-One antagonist assay, 5-HT2A.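 Note: clonal line with low receptor density (about 50–70 fmol/mg), 10-point dose-response from 10 µM in 5-fold steps, HTRF detection after 1 hr, triplicate points.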 Conditions: HEK293 cells stably expressing receptor, inositol phosphate accumulation, 80 nM 5-HT in Assay Buffer. It is filed as cell-based.
For assay [3], the target named is 5-HT2B (Homo sapiens (Human), UniProt P41595). Briefly: HTRF IP-One antagonist assay, 5-HT2B.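 Note: clonal HEK293 line with low 5-HT2B expression (estimated 150-200 fmol/mg by radioligand binding), IP-One HTRF readout, 10-point curves from 10 µM in 5-fold steps, triplicate points.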 It is filed as cell-based. As to conditions: HEK293 cells stably expressing receptor, inositol phosphate accumulation, 80 nM 5-HT in Assay Buffer. On the technique in general: Time-resolved FRET reads energy transfer from a long-lived donor to a nearby acceptor.
The target of assay [4] is 5-HT2C (Homo sapiens (Human), UniProt P28335). The assay is described as follows: HTRF IP-One antagonist assay, 5-HT2C.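 Note: clonal HEK293 line with low 5-HT2C density (10–20 fmol/mg), HTRF detection of IP-One, 10-point dose curves from 10 µM in 5-fold steps, triplicate points.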 It is filed as cell-based. As to conditions: HEK293 cells stably expressing receptor, inositol phosphate accumulation, 80 nM 5-HT in Assay Buffer.

By Ki is commonly meant the equilibrium dissociation constant of an inhibitor or competing ligand from its target. For orientation: IC50 means the concentration that gives 50% inhibition.

“And” between values parts separate entries of the source, which are not always exact repeats. Equal values may be shown once.

T1 sequence (P28223 whole entry): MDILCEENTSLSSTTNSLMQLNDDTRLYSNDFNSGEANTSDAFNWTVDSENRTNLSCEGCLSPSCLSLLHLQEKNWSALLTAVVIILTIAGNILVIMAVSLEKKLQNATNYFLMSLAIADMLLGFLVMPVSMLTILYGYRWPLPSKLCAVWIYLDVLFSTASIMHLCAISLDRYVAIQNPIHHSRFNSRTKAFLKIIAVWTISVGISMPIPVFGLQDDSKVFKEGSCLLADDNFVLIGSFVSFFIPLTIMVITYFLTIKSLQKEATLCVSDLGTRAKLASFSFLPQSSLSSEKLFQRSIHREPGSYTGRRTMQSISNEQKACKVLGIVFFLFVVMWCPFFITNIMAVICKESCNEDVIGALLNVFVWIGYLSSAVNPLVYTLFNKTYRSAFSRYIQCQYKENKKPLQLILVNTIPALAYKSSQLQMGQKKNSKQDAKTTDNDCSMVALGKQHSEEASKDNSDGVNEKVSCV
Chain of 5-HT2B (P41595 whole entry): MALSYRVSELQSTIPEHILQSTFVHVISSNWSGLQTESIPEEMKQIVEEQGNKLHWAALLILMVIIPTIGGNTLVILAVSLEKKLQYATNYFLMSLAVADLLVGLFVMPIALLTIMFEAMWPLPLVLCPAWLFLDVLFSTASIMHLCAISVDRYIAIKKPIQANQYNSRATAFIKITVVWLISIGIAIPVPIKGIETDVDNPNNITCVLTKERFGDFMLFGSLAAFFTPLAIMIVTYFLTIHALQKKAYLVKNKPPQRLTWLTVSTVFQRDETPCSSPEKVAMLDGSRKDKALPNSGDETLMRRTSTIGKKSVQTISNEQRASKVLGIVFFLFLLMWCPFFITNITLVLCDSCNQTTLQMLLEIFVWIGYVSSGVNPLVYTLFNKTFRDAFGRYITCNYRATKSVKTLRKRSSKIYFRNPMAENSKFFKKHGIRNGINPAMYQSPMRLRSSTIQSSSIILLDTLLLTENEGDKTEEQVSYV
Chain of 5-HT2C (P28335 33-458): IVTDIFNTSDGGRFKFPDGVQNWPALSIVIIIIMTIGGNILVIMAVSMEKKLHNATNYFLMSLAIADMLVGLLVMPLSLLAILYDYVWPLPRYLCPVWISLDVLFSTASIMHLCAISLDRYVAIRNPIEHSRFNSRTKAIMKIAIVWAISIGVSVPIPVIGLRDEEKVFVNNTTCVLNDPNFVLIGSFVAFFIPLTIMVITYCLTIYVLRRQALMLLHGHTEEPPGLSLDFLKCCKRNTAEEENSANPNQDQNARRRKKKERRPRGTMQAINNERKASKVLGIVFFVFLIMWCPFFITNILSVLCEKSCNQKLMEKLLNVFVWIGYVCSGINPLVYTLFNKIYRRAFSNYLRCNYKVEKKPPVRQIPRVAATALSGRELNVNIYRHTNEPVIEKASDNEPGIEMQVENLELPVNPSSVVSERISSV

Regarding `CCOC1CC1C(=O)Nc1ccc(OC[C@H]2CCCCN2)c(-c2c(C)ncnc2C)c1` (stereo partly drawn) [Compound 447, N-(3-(4,6-dimethylpyrimidin-5-yl)-4-(((R)-piperidin-2-yl)methoxy)phenyl)-2-ethoxycyclopropane-1-carboxamide], the Ki in assay [1] was 0.00708 µM and 0.0196 µM. In addition, the IC50 in assay [2] worked out at 0.00905 µM; in assay [3] it was 100 µM; in assay [4] it was 100 µM.
In the case of `COCCNCCOc1ccc(NC(=O)C2(F)CC2)cc1-c1c(C)ncnc1C` [Compound 453, N-(3-(4,6-dimethylpyrimidin-5-yl)-4-(2-((2-methoxyethyl)amino)ethoxy)phenyl)-1-fluorocyclopropane-1-carboxamide], the Ki in assay [1] came out at 0.00476 µM. Besides, the IC50 in assay [2] was found to be 0.00484 µM; in assay [3] it was 100 µM; in assay [4], 100 µM.

(Values after patent publication US20250270172A1, “Pyrimidine Derivatives As Modulators of the 5-HT2A Serotonin Receptor Useful For The Treatment of Disorders Related Thereto” (Arena Pharmaceuticals, Inc., priority 2020, published 2025).)
